From EP1075277B2, “METHODS FOR DETECTING AND INHIBITING ANGIOGENESIS” (The Regents of the University of California, priority 1998, dated 2012)
Entries after “also recorded” stand apart in the source; their conditions may differ.

Legend:
[1] = tested on: α5β1 HT29 colon carcinoma cells, CEF's, and HUVEC's; test: Cell adhesion assay on vitronectin; assay type: cell-based; conditions: 1 µg/ml vitronectin coat
Description: (§1) HT29 integrin α5β1 cells, integrin α5β1 colon carcinoma cells (Varner et al., Mol. Biol. Cell 6:725-740 (1995)), and chick embryo fibroblasts (CEF's) were maintained in DMEM high glucose supplemented with 10% fetal bovine serum (FBS) and gentamycin. Human umbilical vein endothelial cells (HWEC's) were maintained in M199 medium containing sodium bicarbonate, HEPES, heparin, endothelial cell growth supplement, 20% FBS and gentamycin. Culture media and reagents were from Irvine Scientific (Irvine, CA).
(§2) The wells of 48 well culture dishes (Costar, Inc.) were coated with 1 µg/ml vitronectin, 2 µg/ml fibronectin (chick embryo fibroblasts and HUVEC's) or 10 µg/ml fibronectin (HT29-α5^+ cells) for 1 hr at 37°C, then blocked with 2% heat denatured BSA in PBS for 1 hr. […]
(§3) Cells were allowed to adhere to dishes for 20 min at 37°C. […] Crystal violet was extracted by incubation for 15 min in 10% acetic acid and absorbance at 562 nm determined as an indicator of number of cells bound. […]

[2] = target: T1, α5β1 receptor purified from human placenta (Homo sapiens, UniProt P05556+P08648); test: Integrin receptor ligand binding assay, α5β1 / fibronectin; conditions: biotinylated fibronectin
T1 construct: α5β1 receptor purified from human placenta; purchased Chemicon International; host or cells: human placenta (tissue-purified)
T1 sequence (P08648 42-894 limits assumed): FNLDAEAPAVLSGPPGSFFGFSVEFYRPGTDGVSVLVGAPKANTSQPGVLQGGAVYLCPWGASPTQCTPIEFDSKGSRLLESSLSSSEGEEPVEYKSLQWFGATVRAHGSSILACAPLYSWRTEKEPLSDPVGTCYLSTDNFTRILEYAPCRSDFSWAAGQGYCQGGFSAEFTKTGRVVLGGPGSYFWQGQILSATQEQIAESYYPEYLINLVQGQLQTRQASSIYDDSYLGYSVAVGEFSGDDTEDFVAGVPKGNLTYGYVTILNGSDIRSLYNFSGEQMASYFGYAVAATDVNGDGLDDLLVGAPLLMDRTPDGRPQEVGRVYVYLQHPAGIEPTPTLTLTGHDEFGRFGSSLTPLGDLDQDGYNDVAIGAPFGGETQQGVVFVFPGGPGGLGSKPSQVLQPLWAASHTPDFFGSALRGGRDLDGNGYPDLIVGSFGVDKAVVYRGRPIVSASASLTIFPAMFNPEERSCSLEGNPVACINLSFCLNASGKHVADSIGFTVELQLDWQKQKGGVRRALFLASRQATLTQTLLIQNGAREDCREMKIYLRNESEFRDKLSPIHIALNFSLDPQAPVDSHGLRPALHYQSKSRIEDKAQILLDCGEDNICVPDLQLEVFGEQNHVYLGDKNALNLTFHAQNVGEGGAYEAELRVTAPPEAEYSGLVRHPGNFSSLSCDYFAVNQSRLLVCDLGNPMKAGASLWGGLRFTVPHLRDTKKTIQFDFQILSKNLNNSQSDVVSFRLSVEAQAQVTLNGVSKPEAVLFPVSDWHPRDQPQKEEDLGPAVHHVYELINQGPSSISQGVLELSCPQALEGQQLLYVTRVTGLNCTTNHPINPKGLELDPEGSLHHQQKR
T1 sequence (P08648 895-1049 partner limits assumed): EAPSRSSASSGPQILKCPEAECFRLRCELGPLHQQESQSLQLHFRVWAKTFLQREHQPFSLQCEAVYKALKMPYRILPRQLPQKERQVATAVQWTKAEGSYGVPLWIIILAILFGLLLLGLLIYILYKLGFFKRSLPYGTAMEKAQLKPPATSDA
T1 sequence (P05556 21-798): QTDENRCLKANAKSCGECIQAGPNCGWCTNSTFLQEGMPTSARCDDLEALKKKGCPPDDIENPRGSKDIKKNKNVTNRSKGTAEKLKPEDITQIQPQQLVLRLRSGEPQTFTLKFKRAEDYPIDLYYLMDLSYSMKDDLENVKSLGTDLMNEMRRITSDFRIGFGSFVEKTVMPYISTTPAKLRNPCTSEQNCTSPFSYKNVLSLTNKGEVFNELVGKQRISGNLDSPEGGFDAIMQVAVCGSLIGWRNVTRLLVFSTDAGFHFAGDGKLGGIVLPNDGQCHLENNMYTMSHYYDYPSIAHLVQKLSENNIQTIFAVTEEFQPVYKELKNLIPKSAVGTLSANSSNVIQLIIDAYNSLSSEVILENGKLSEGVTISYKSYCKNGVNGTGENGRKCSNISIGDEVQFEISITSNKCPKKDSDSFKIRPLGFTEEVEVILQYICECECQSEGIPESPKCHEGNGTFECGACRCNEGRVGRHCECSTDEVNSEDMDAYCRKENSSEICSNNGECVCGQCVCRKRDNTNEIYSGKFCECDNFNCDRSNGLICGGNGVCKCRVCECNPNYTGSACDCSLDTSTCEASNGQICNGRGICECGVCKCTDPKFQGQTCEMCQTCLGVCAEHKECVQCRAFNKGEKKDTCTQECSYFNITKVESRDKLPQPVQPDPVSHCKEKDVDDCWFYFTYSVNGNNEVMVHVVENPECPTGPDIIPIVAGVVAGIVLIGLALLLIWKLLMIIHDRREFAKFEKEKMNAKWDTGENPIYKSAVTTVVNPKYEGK
Procedure: (§4) Integrin αVβ3 and α5β1 receptor purified from human placenta were obtained from Chemicon International. Platelet integrin αIIbβ3 was purified from platelets according to established procedures. Receptors were coated (100 µl/well) on Costar (3590) high capacity binding plates overnight at 4°C. Coating solution was discarded and plates were washed once with blocking/binding (B/B) buffer (50 mM Tris HCl, pH 7.4, 100 mM NaCl, 2mM CaCl2, 1 mM MgCl2, 1 mM MnCl2 and 1% BSA).
(§5) One hundred ten microliters of B/B buffer was applied for 60 min at RT. Thirty µl of biotinylated extracellular matrix protein ligand (fibronectin for integrin α5β1, vitronectin for integrin αVβ3 and fibrinogen for integrin αIIbβ3) plus 50 µl of either SJ749 in B/B buffer or B/B buffer alone were added to each well, and incubated for 25 min at RT. Plates were washed twice with B/B buffer and incubated 1 hr at RT, with anti-biotin alkaline phosphatase (100 µl/well) in B/B buffer. Finally, plates were washed twice with B/B followed by the addition of 100 µl of phosphatase substrate (1.5 mg/ml). Reaction was stopped by adding 2N NaOH (25 µl/well), and the developed color was read at 405 nm.

α5^+ HT29 cells = test: Cell adhesion assay on fibronectin, HT29-α5+ cells; assay type: cell-based; conditions: Homo sapiens, HT-29, 0-10 µM SJ749, Figure 1, read-out: half maximal inhibitory concentration, adhesion to fibronectin
Description: as §1, §2, §3

[3] = tested on: blood vessel branch points in chorioallantoic membranes (CAM's); test: In ovo chick chorioallantoic membrane (CAM) angiogenesis assay; assay type: in vivo; conditions: for effect on bFGF-induced angiogenesis (in words): bFGF stimulated CAM
Description: Ten day old embryonated chicken eggs (McIntyre Poultry; Ramona CA) were candled to illuminate blood vessels under the shell and an area with a minimum of small blood vessels is identified. The CAM was dropped away from the eggshell in this area by grinding a small hole in the mineralized shell and applying pressure to the underlying inner shell membrane. This procedure caused an air pocket to shift from the wide end of the egg to the identified area and forcing a circular region of the CAM approximately 2 cm in diameter to drop away from the shell. A window was cut in the egg shell and a cortisone acetate pre-treated filter disc 5 mm in diameter that had been saturated in 1 µg/ml bFGF, VEGF, TNFα, IL-8 (Genzyme, Inc.; Cambridge MA) or saline was placed on the CAM. The window in the shell was sealed with adhesive tape and the egg was incubated for four days.
Anti-fibronectin antibodies (25 µg in 25 µl) also were applied topically to the CAM.
Fibronectin, vitronectin and fibronectin fragments (59 pmol in a final volume of 25 µl) were applied to stimulated or unstimulated CAM's. Peptide or small molecule antagonists of α5β1 (at a final serum concentration of 0-25 µM) also were injected intravenously into the chick circulation 24 hr later. CAM's were harvested on the fourth day of stimulation. Blood vessel branch points in the 5 mm filter disk area were counted at 30 X magnification in a blinded fashion as a size-independent quantitative indicator of vascular sprouting in response to growth factors. Angiogenesis is characterized by the sprouting of new vessels in response to growth factors. Thus, counting of blood vessel branch points is a useful quantitative means of obtaining an angiogenic index (Brooks et al., In "Methods in Molecular Biology" (Humana Press 1999). At least ten embryos were used per treatment group. Each experiment was performed a minimum of three times.
Data was evaluated in terms of average number of blood vessel branch points per treatment group +/- standard error of measurement. Statistical analyses were performed using Student's t-test. […]

Integrin αVβ3 = target: T2, Integrin αVβ3 (Homo sapiens, UniProt P05106+P06756); test: Integrin receptor ligand binding assay, αVβ3 / vitronectin; conditions: biotinylated vitronectin for αVβ3
T2 construct: Integrin αVβ3 and α5β1 receptor purified from human placenta; purchased Chemicon International; host or cells: human placenta (tissue-purified, as the sentence is read)
T2 sequence (P06756 31-889 limits assumed): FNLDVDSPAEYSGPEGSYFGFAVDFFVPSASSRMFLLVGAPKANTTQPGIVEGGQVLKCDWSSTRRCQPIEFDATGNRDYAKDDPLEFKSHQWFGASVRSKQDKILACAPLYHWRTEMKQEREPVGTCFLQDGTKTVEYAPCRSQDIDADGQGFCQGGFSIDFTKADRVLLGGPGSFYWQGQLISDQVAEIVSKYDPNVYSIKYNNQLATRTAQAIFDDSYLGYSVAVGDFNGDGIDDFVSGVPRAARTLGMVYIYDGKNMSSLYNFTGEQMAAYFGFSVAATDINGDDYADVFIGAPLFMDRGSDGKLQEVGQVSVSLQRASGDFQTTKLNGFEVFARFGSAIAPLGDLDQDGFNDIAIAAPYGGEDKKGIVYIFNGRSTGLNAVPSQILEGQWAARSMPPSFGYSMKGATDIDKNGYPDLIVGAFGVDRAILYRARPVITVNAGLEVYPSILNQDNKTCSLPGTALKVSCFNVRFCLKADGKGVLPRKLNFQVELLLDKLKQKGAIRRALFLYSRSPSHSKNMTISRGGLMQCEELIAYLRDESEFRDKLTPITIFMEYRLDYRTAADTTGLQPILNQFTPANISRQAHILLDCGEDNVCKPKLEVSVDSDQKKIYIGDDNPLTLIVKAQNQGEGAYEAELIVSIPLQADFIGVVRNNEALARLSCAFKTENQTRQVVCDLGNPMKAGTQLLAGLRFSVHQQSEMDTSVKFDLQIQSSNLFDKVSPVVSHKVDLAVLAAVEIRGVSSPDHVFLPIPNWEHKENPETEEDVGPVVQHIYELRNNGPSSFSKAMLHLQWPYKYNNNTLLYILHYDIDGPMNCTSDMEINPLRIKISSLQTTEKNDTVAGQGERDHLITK
T2 sequence (P06756 891-1048 partner limits assumed): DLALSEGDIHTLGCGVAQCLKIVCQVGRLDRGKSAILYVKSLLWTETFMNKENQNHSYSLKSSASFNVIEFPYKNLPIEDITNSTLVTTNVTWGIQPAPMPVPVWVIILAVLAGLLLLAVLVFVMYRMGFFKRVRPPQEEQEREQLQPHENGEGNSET
T2 sequence (P05106 27-788): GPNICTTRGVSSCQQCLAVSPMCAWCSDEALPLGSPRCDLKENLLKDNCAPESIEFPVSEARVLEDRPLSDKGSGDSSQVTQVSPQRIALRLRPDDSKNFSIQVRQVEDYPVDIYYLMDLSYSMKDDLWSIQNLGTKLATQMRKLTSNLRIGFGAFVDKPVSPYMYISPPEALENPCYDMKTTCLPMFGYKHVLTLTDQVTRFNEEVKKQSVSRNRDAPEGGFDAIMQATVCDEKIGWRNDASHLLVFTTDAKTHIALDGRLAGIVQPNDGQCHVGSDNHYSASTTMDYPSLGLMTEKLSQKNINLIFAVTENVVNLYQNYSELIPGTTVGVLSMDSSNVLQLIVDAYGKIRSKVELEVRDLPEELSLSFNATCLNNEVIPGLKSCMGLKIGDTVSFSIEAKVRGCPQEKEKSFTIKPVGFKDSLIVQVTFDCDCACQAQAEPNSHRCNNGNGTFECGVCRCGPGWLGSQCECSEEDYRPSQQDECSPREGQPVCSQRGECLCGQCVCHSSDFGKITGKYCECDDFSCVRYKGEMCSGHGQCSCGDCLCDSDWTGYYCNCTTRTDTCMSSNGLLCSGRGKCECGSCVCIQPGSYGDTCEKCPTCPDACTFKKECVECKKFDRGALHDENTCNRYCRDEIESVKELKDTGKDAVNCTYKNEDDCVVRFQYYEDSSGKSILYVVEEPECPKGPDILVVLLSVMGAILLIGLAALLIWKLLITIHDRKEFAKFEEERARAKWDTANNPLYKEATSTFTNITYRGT
Procedure: as §4, §5

[4] = tested on: integrin α5β1 positive cells, including α5β1 HT29 colon carcinoma cells, CEF's, and HUVEC's; test: Cell adhesion assay on fibronectin, results in words for the α5β1 positive cells together; assay type: cell-based; conditions: antibodies 50 µg/ml, cyclic peptides 10 µM, SJ749 0-10 µM
Description: as §1, §2, §3

HUVEC's = test: Cell migration assay (transwell); assay type: cell-based, human; conditions: 4 hr at 37°C
Procedure: The Lower side of 8 µm pore transwell inserts (Costar, Inc.) were coated with 2 µg/ml of fibronectin, collagen (Collaborative Biomedical Products; Bedford MA) or no protein for 1 hr and were blocked with 2% BSA in PBS for 1 hr. The inserts then were placed into 24 well culture dishes containing 500 µl migration buffer in the lower chamber. Twenty-five thousand HUVEC's in 50 µl of migration buffer (HEPES buffered M199 medium containing 1% BSA, 2 mM MgCl2, 2 mM CaCl2 and 0.2 mM MnCl2) were added to the upper chamber of duplicate inserts containing 50 µl of a solution of 50 µg/ml of anti-α5β1 function blocking antibody (NKI-SAM-1, JBS5 or IIA1), 50 µ/ml of anti-α5β1 non-function blocking antibody (HA5 or VC5), or 50 µg/ml of LM609 (an anti-αVβ3 function blocking antibody) in migration buffer, or migration buffer alone.
Cells were allowed to migrate from the upper to the lower chamber for 4 hr at 37°C. Nonmigratory cells were removed from the upper surface by wiping the upper side with an absorbant tip, and cells that had migrated to the lower side of the transwell insert were fixed for 15 min with 3.7% paraformaldehyde in PBS, then stained with a 2% crystal violet solution. After extensive water washing to remove excess crystal violet, the number of cells that had migrated were counted in three representative high power (200X) fields per insert. […]

[5] = tested on: HT29 colon carcinoma cells lacking α5β1 expression; test: Chick CAM tumor assay, HT29; assay type: in vivo; conditions: antibody 25 µg topically; for effect on tumor size (in words): peptide or small molecule 25 µM intravenously
Procedure: The chick CAM tumor assay was performed by placing ten million tumor cells on the surface of a CAM, and culturing the cells for one week. The resulting tumors were excised and cut into 50 mg fragments. […] Forty-eight hours later, CAM's were excised from the egg and the number of blood vessels entering the tumors were counted (as vessel branch points) .
Data was presented as mean blood vessel number per treatment group (+/- standard error of measurement). Each treatment group incorporated at least ten tumors per experiment. Representative tumors were photographed at 10X magnification. Tumors were excised from the egg and tumor weights were determined for each tumor. Data was presented as mean tumor weight per treatment group (+/- standard error of measurement). Statistical analyses were performed using Student's t-test.
HT29 colon carcinoma cells lacking α5β1 expression were grown on the CAM's of 10-day old embryos. These tumor cells secrete several angiogenic growth factors, including VEGF, TGFα, TGFβ, TNFα, and IL-8 (Anzano et al., Cancer Res. 49:2898-2904 (1989); Varner et. al., supra, 1995; Ellis et al., J. Biol. Chem. 273:1052-1057 (1998)). Integrin α5β1 negative tumor cells were used to distinguish the potential anti-tumor effects from anti-vasculature effects of integrin α5β1 antagonists.

Compound | effect on cell attachment to vitronectin (in words) [1] | effect on ligand binding to α5β1 (in words) [2] | IC50 (α5^+ HT29 cells) [nM] | effect on VEGF-induced angiogenesis (in words) ([3]; VEGF stimulated CAM) | effect on bFGF-induced angiogenesis (in words) [3] | effect on ligand binding to αVβ3 and other integrins (in words) (Integrin αVβ3) | effect on cell adhesion to fibronectin (in words) [4] | effect on endothelial cell migration on fibronectin (in words) (HUVEC's) | effect on endothelial cell migration on other matrix proteins, including collagen (in words) (HUVEC's) | tumors smaller than control treated tumors ([5]; peptide or SJ749 25 µM final serum concentration intravenously) [%] | effect on tumor size (in words) [5]
Cc1cc(C)c(S(=O)(=O)N[C@@H](CNC(=O)C2=NOC3(C2)CC(CNc2ccccn2)N(C(=O)OCc2ccccc2)C3)C(=O)O)c(C)c1 (stereo partly drawn) [SJ749] | ineffective in blocking cell attachment to vitronectin or other extracellular matrix ligands | selectively inhibited ligand binding to α5β1; also recorded: interfered with α5β1 binding to fibronectin | 800 | did not block VEGF angiogenesis | blocked bFGF-induced angiogenesis on chick CAM's in a dose-dependent manner when applied either topically or systemically; also recorded: dose dependent inhibitory effect; also recorded: reduced or inhibited angiogenesis in a dose dependent manner | substantially less effective in blocking ligand binding to αVβ3 and other integrins | blocked the adhesion of these cells to fibronectin in a concentration-dependent manner; also recorded: inhibitory effect | highly effective in blocking endothelial cell migration on fibronectin | but not on other matrix proteins such as collagen | 51 | induced tumor regression on the CAM
CATAERWRC | little effect on cell adhesion to either fibronectin or vitronectin |  |  |  | did not inhibit angiogenesis |  | little effect on cell adhesion to either fibronectin or vitronectin |  |  |  | continued to increase in size
